Test system: apyrase
Assay: Screen for apyrase inhibitors (Method 1, in vitro phosphate-release absorbance assay)
Type: biochemical
Conditions: inhibitor conc at 1 mM stock, 1 hr room temperature, absorbance 630 nm; rounded average of two assay results
Summary of the method: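 Phosphate-release colorimetric assay (Windsor method) in 60 mM Hepes, 3 mM MgCl2, 3 mM CaCl2, 3 mM ATP, pH 6.5, with compound or DMSO control added. Released phosphate developed with ammonium molybdate and ascorbic acid/TCA, then stopped with citrate/acetic acid.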

Row | % Inhibition of Apyrase [%] | SMILES
1 | 54 | O=C(Nc1ccc(-n2cnnn2)cc1)c1cccc(S(=O)(=O)N2CCc3ccccc32)c1 [I-535, N-(4-(1H-tetrazol-1-yl)phenyl)-3-(indolin-1-ylsulfonyl)benzamide]
2 | 54 | CC1Cc2ccccc2N1S(=O)(=O)c1cccc(C(=O)Nc2ccc3c(c2)OCCO3)c1 (centres unmarked) [I-536, N-(2,3-dihydrobenzo[b][1,4]dioxin-6-yl)-3-((2-methylindolin-1-yl)sulfonyl)benzamide]
3 | 54 | O=C(Nc1cccc(F)c1)c1ccc(Cl)c(S(=O)(=O)N2CCc3ccccc32)c1 [I-537, 4-chloro-N-(3-fluorophenyl)-3-(indolin-1-ylsulfonyl)benzamide]
4 | 54 | COc1ccc(S(=O)(=O)N2CCc3ccccc32)cc1C(=O)Nc1ccccc1F [I-538, N-(2-fluorophenyl)-5-(indolin-1-ylsulfonyl)-2-methoxybenzamide]
5 | 54 | O=C(Nc1ccc2c(c1)CCC2)c1cccc(S(=O)(=O)N2CCc3ccccc32)c1 [I-539, N-(2,3-dihydro-1H-inden-5-yl)-3-(indolin-1-ylsulfonyl)benzamide]
6 | 54 | COc1ccc(N(C)S(=O)(=O)c2cccc(C(=O)N3CCc4ccccc43)c2)cc1 [I-540, 3-(indoline-1-carbonyl)-N-(4-methoxyphenyl)-N-methylbenzenesulfonamide]
7 | 54 | CCOc1ccc(NC(=O)c2cccc(S(=O)(=O)Nc3ccc(OCC)cc3)c2)cc1 [I-541, N-(4-ethoxyphenyl)-3-(N-(4-ethoxyphenyl)sulfamoyl)benzamide]
8 | 54 | O=C(c1cccc(S(=O)(=O)Nc2cccc(Cl)c2)c1)N1CCc2ccccc21 [I-542, N-(3-chlorophenyl)-3-(indoline-1-carbonyl)benzenesulfonamide]
9 | 54 | Cc1ccc(S(=O)(=O)Nc2ccc(F)cc2)cc1C(=O)N1CCc2ccccc21 [I-543, N-(4-fluorophenyl)-3-(indoline-1-carbonyl)-4-methylbenzenesulfonamide]
10 | 54 | Cc1ccc(S(=O)(=O)Nc2ccc(F)cc2)cc1C(=O)N1c2ccccc2CC1C (centres unmarked) [I-544, N-(4-fluorophenyl)-4-methyl-3-(2-methylindoline-1-carbonyl)benzenesulfonamide]
11 | 53 | COc1ccc(C(=O)N2c3ccccc3CC2C)cc1S(=O)(=O)Nc1ccc(C)cc1 (centres unmarked) [I-545, 2-methoxy-5-(2-methylindoline-1-carbonyl)-N-(p-tolyl)benzenesulfonamide]
12 | 53 | COc1ccc(N(C)S(=O)(=O)c2cccc(C(=O)Nc3ccc(OC)c(Cl)c3)c2)cc1 [I-546, N-(3-chloro-4-methoxyphenyl)-3-(N-(4-methoxyphenyl)-N-methylsulfamoyl)benzamide]
13 | 53 | Cc1ccc(NC(=O)c2cccc(S(=O)(=O)N3c4ccccc4CC3C)c2)c(C)c1 (centres unmarked) [I-547, N-(2,4-dimethylphenyl)-3-((2-methylindolin-1-yl)sulfonyl)benzamide]
14 | 53 | COc1ccc(Cl)cc1NC(=O)c1cccc(S(=O)(=O)N2CCc3ccccc32)c1 [I-548, N-(5-chloro-2-methoxyphenyl)-3-(indolin-1-ylsulfonyl)benzamide]
15 | 53 | O=C(Nc1cc(Cl)ccc1N1CCOCC1)c1cccc(S(=O)(=O)N2CCc3ccccc32)c1 [I-549, N-(5-chloro-2-morpholinophenyl)-3-(indolin-1-ylsulfonyl)benzamide]
16 | 53 | CN(C)S(=O)(=O)c1cccc(NC(=O)c2cccc(S(=O)(=O)N3CCc4ccccc43)c2)c1 [I-550, N-(3-(N,N-dimethylsulfamoyl)phenyl)-3-(indolin-1-ylsulfonyl)benzamide]
17 | 53 | O=C(c1cc(S(=O)(=O)Nc2cccc(Cl)c2)c(Cl)cc1Cl)N1CCCc2ccccc21 [I-551, 2,4-dichloro-N-(3-chlorophenyl)-5-(1,2,3,4-tetrahydroquinoline-1-carbonyl)benzenesulfonamide]
18 | 53 | Cc1ccc(NC(=O)c2cccc(S(=O)(=O)N3CCc4ccccc43)c2)c(OCC2CCCO2)c1 (centres unmarked) [I-552, 3-(indolin-1-ylsulfonyl)-N-(4-methyl-2-((tetrahydrofuran-2-yl)methoxy)phenyl)benzamide]
19 | 52 | CC(C)n1ncc2cc(NC(=O)c3cccc(S(=O)(=O)Nc4ccc5c(c4)OCO5)c3)cnc21 [I-553, 3-(N-(benzo[d][1,3]dioxol-5-yl)sulfamoyl)-N-(1-isopropyl-1H-pyrazolo[3,4-b]pyridin-5-yl)benzamide]
20 | 52 | O=C(Nc1ccc(S(=O)(=O)Nc2ncccn2)cc1)c1cccc(S(=O)(=O)N2CCc3ccccc32)c1 [I-554, 3-(indolin-1-ylsulfonyl)-N-(4-(N-(pyrimidin-2-yl)sulfamoyl)phenyl)benzamide]
21 | 52 | Cc1cccc(NC(=O)c2ccc(Cl)c(S(=O)(=O)N3CCc4ccccc43)c2)c1 [I-555, 4-chloro-3-(indolin-1-ylsulfonyl)-N-(m-tolyl)benzamide]

Row | % Inhibition of Apyrase [%] | SMILES
22 | 52 | CC1Cc2ccccc2N1S(=O)(=O)c1cccc(C(=O)Nc2cccc(S(=O)(=O)N(C)C)c2)c1 (centres unmarked) [I-556, N-(3-(N,N-dimethylsulfamoyl)phenyl)-3-((2-methylindolin-1-yl)sulfonyl)benzamide]
23 | 52 | N#Cc1ccc(NC(=O)c2ccc(Cl)c(S(=O)(=O)N3CCc4ccccc43)c2)cc1 [I-557, 4-chloro-N-(4-cyanophenyl)-3-(indolin-1-ylsulfonyl)benzamide]
24 | 52 | Cc1ccc(N(C)S(=O)(=O)c2cccc(C(=O)N3CCc4ccccc43)c2)cc1 [I-558, 3-(indoline-1-carbonyl)-N-methyl-N-(p-tolyl)benzenesulfonamide]
25 | 52 | O=C(c1cc(S(=O)(=O)Nc2ccc(Cl)cc2)ccc1Cl)N1CCCc2ccccc21 [I-559, 4-chloro-N-(4-chlorophenyl)-3-(1,2,3,4-tetrahydroquinoline-1-carbonyl)benzenesulfonamide]
26 | 52 | Cc1cccc(NS(=O)(=O)c2cc(C(=O)Nc3cccc(C#N)c3)c(Cl)cc2Cl)c1 [I-560, 2,4-dichloro-N-(3-cyanophenyl)-5-(N-(m-tolyl)sulfamoyl)benzamide]
27 | 51 | COc1ccc2c(c1)CCCN2C(=O)c1cccc(S(=O)(=O)Nc2ccccc2F)c1 [I-561, N-(2-fluorophenyl)-3-(6-methoxy-1,2,3,4-tetrahydroquinoline-1-carbonyl)benzenesulfonamide]
28 | 51 | O=C(Nc1ccc2c(c1)OCO2)c1ccc(Cl)c(S(=O)(=O)N2CCc3ccccc32)c1 [I-562, N-(benzo[d][1,3]dioxol-5-yl)-4-chloro-3-(indolin-1-ylsulfonyl)benzamide]
29 | 51 | COc1ccc(N(C)S(=O)(=O)c2cccc(C(=O)Nc3ccc4c(c3)OCCO4)c2)cc1 [I-563, N-(2,3-dihydrobenzo[b][1,4]dioxin-6-yl)-3-(N-(4-methoxyphenyl)-N-methylsulfamoyl)benzamide]
30 | 51 | CCOc1ccc(N(C)S(=O)(=O)c2ccc(C)c(C(=O)N3c4ccccc4CC3C)c2)cc1 (centres unmarked) [I-564, N-(4-ethoxyphenyl)-N,4-dimethyl-3-(2-methylindoline-1-carbonyl)benzenesulfonamide]
31 | 51 | O=C(Nc1ccc2c(c1)OCCCO2)c1ccc(Cl)c(S(=O)(=O)N2CCc3ccccc32)c1 [I-565, 4-chloro-N-(3,4-dihydro-2H-benzo[b][1,4]dioxepin-7-yl)-3-(indolin-1-ylsulfonyl)benzamide]
32 | 51 | CCc1ccccc1NC(=O)c1cccc(S(=O)(=O)N2CCc3ccccc32)c1 [I-566, N-(2-ethylphenyl)-3-(indolin-1-ylsulfonyl)benzamide]
33 | 51 | O=C(c1cccc(S(=O)(=O)N2CCc3ccccc32)c1)N1CCc2ccccc21 [I-567, indolin-1-yl(3-(indolin-1-ylsulfonyl)phenyl)methanone]
34 | 51 | CCOc1ccc(NS(=O)(=O)c2cccc(C(=O)N3CCCc4ccccc43)c2)cc1 [I-568, N-(4-ethoxyphenyl)-3-(1,2,3,4-tetrahydroquinoline-1-carbonyl)benzenesulfonamide]
35 | 51 | Cc1ccc(C(=O)N2CCc3ccccc32)cc1S(=O)(=O)Nc1ccc(F)cc1 [I-569, N-(4-fluorophenyl)-5-(indoline-1-carbonyl)-2-methylbenzenesulfonamide]
36 | 51 | COc1cc(OC)c(NS(=O)(=O)c2ccc(C)c(C(=O)N3CCc4ccccc43)c2)cc1Cl [I-570, N-(5-chloro-2,4-dimethoxyphenyl)-3-(indoline-1-carbonyl)-4-methylbenzenesulfonamide]
37 | 51 | CC1Cc2ccccc2N1S(=O)(=O)c1cccc(C(=O)N2CCCc3cc(F)c(F)cc32)c1 (centres unmarked) [I-571, (6,7-difluoro-3,4-dihydroquinolin-1(2H)-yl)(3-((2-methylindolin-1-yl)sulfonyl)phenyl)methanone]
38 | 50 | O=C(Nc1ccccc1C(=O)N1CCCCC1)c1cccc(S(=O)(=O)N2CCc3ccccc32)c1 [I-572, 3-(indolin-1-ylsulfonyl)-N-(2-(piperidine-1-carbonyl)phenyl)benzamide]
39 | 50 | O=C(Nc1ccc2c(c1)OCCCO2)c1cccc(S(=O)(=O)Nc2ccc3c(c2)OCCO3)c1 [I-573, N-(3,4-dihydro-2H-benzo[b][1,4]dioxepin-7-yl)-3-(N-(2,3-dihydrobenzo[b][1,4]dioxin-6-yl)sulfamoyl)benzamide]
40 | 49 | Cc1ccc2c(c1)CCCN2C(=O)c1cccc(S(=O)(=O)Nc2ccccc2F)c1 [I-574, N-(2-fluorophenyl)-3-(6-methyl-1,2,3,4-tetrahydroquinoline-1-carbonyl)benzenesulfonamide]
41 | 49 | COc1ccc(NC(=O)c2cccc(S(=O)(=O)N3CCc4ccccc43)c2)c(OC)c1 [I-575, N-(2,4-dimethoxyphenyl)-3-(indolin-1-ylsulfonyl)benzamide]
